Source: patent US20250051323A1 (RICHTER GEDEON NYRT., priority 2021, published 2025)
Structures can show the parent of a compound that is named as a salt. Where two headings read alike, the source gives them in different places.

Columns and labels:
[1] = target: T1, human recombinant GABAA α5β3γ2 receptor (Homo sapiens (Human), UniProt P18507+P31644); assay: Binding assay, [3H]Ro151788 displacement on HEK cell membranes; conditions: [3H]Ro151788 0.5 nM, 60 minutes at 4° C., Cheng-Prusoff; read-out: hGABAA α5 Ki
T1 sequence (P31644 32-462): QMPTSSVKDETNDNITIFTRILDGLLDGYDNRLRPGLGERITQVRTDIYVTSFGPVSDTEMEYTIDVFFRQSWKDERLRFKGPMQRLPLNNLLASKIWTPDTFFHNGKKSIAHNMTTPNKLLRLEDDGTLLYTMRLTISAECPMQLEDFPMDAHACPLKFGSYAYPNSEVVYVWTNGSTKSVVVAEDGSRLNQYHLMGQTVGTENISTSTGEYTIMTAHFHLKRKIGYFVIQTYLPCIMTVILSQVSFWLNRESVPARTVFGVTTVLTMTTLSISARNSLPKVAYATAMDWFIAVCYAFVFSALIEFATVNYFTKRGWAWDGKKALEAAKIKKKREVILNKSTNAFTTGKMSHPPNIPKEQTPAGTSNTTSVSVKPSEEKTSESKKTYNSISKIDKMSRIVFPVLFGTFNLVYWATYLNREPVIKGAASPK
T1 sequence (P28472 26-473 partner): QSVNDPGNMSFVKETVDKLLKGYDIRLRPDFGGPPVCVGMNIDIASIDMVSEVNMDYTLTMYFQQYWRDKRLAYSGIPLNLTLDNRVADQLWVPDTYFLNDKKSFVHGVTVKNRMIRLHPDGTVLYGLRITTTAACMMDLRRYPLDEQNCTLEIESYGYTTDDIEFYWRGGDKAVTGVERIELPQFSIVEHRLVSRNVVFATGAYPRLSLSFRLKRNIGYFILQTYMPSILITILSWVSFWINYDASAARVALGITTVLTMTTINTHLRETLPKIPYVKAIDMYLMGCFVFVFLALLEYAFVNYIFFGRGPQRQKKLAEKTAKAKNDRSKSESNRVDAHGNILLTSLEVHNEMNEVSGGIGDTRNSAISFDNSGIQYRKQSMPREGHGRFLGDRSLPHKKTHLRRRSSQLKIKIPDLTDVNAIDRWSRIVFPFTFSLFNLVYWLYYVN
T1 sequence (P18507 40-475): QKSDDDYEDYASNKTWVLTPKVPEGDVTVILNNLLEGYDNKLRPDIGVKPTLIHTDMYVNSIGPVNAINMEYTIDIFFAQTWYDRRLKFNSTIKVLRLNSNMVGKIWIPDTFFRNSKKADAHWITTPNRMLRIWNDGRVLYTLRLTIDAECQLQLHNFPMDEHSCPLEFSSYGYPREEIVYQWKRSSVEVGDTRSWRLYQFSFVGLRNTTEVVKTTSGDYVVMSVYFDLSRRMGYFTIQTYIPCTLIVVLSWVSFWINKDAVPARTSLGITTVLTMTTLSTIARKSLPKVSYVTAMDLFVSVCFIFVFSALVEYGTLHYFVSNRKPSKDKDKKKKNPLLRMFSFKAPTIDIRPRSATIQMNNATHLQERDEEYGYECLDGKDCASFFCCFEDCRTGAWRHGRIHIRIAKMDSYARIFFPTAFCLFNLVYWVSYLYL
Description: The GABAA α5β3γ2 protein used for the receptor binding assay was derived from membranes produced from HEK cells (Millipore CYL3073) expressing the human recombinant GABAA α5β3γ2 receptor. Cells were stored and cultured in-house according to the instructions provided by the vendor (Millipore). Cell pellet was homogenized in 10 times modified Krebs Henseleit buffer (membrane preparation buffer): 20 mM Tris, 120 mM NaCl, 100 mM KCl, 25 mM CaCl2 and 25 mM MgCl2 pH=7.4 at 4° C. using Ultra Turrax (Janke&Kunkel) maximal speed for 15 seconds. The homogenate was centrifuged at 40,000 g for 30 minutes at 4° C. Supernatant was discarded and the resulting pellet was washed in membrane preparation buffer. Pellet was resuspended in membrane preparation buffer and aliquots of 1.4 mL ampules were stored at −70° C. until use.
Receptor binding assays were performed in 96-well format in deep-well plates. For each 96-well plate one ampule of membrane homogenate was thawed and diluted in binding buffer (50 mM Tris pH=7.4, 100 mM KCl) and 200 μL was dispensed into each well. Radioligand [^3H]Ro151788 (Perkin Elmer: NET757250UC) was prepared in binding buffer and added to each well in 50 μL volume to give final concentration of 0.5 nM. Test compounds in suitable concentration(s) were added in additional 50 μL. The final assay volume was 300 μL. Incubation was carried out for 60 minutes at 4° C. For non-specific binding 10 μM unlabeled diazepam was used. […] The plate was dried at 40° C. for an hour and 40 μL Microscint (Perkin Elmer) scintillation cocktail was added to each well. The plate was read in Microbeta (Perkin Elmer).
The specific radioligand binding (SB) was defined as the difference between total binding (Tot) and the non-specific binding (NSB). Results are expressed as a percent inhibition of specific binding obtained in the presence of compound of interest.
For IC50 and Ki determination a minimum of six drug concentrations in triplicate were used. […] Ki values (i.e., inhibition constants) were calculated using the Cheng-Prusoff equation Ki=IC5O/[1+(L/KD)], where [L] is the radioligand concentration and KD the affinity of the labelled ligand for receptor. KD was determined from the Saturation analyses.

[2] = target: T1, human recombinant GABAA α5β3γ2 receptor; assay: Functional assay, QPatch automated whole-cell patch clamp, modulation of GABA-evoked current; type: cell-based; conditions: read-out: hGABAA α5 efficacy (percentage modulation of GABA-evoked peak current)
Description: Human HEK293 cell lines expressing GABAAα5β3γ2 receptors were used in functional assays using the QPatch automated patch clamp system.
HEK293 cell lines stably expressing human recombinant GABAA α5β3γ2 receptor subunits (Millipore, CYL3053) were cultured in DMEM supplemented with 10% FBS (Gibco), passed two times per week and plated on Petri dishes previously coated with poly-d-lysine.
Automated whole-cell patch clamp recordings were made from cells 2-4 days after plating.
Inward currents were evoked at a holding potential of −80 mV by 3-s-long applications of the control agonist GABA at 1 μM at 2-4-min intervals first in concentration-matched DMSO (0.1 or 0.3%) control solution for five times, then in the presence of the test compound for four times, finally in control solution again for three times (wash-out). At the end of the experiment 100 μM GABA was applied to saturate the GABA-response and to assess the efficacy of the control GABA application. Current signals were low-pass filtered at 100 Hz and recorded at a sampling rate of 1 kHz.
The percentage modulation was calculated from the comparison of GABA-evoked peak current amplitudes in the presence and absence of the test compound.

[3] = mouse stress models and aged mice; cited from earlier work
[4] = cited from earlier work
[5] = rats, developmental models of schizophrenia; cited from earlier work
[6] = low dose; cited from earlier work
[7] = test compound 1 μM, GABA 1 μM, holding potential −80 mV

Cc1onc(-c2ccc(C(F)(F)F)nc2)c1COc1cc2c(cn1)CN(C1CCOC1)CC2 (stereo not drawn) [Example 8, 6-({5-methyl-3-[6-(trifluoromethyl)pyridin-3-yl]-1,2-oxazol-4-yl}methoxy)-2-(oxolan-3-yl)-1,2,3,4-tetrahydro-2,7-naphthyridine]
Ki [1]: 0.0112 µM | activation at 1 µM [2, 7]: 133%

Cc1onc(-c2ccc(C(F)(F)F)nc2)c1COc1cc2c(nn1)CN(CC1CCS(=O)(=O)C1)CC2 (stereo not drawn) [Example 19, 3-{[3-({5-methyl-3-[6-(trifluoromethyl)pyridin-3-yl}-1,2-oxazol-4-yl]methoxy)-5H,6H,7H,8H-pyrido[3,4-c]pyridazin-7-yl]methyl}-1lambda6-thiolane-1,1-dione tartarate salt]
Ki [1]: 0.0355 µM | activation at 1 µM [2]: 129%

Cc1ccc(-n2nnc(C)c2COc2cc3c(nn2)CN(C2CCC2)CC3)cn1 [Example 46, 5-{5-[({7-cyclobutyl-5H,6H,7H,8H-pyrido[3,4-c]pyridazin-3-yl}oxy)methyl]-4-methyl-1H-1,2,3-triazol-1-yl}-2-methylpyridine tartarate salt]
Ki [1]: 0.0615 µM | activation at 1 µM [2]: 76%

C#Cc1ccc2c(c1)C(c1ccccc1F)=N[C@H](C)c1c(C(=O)NC)ncn1-2 [MP-III-022]
behavioural effects [3]: procognitive, anxiolytic and antidepressant effects | cognitive performance ([4]; young rats): improved cognitive performance | pathological changes of locomotor activity [5]: attenuated pathological changes of locomotor activity

Cc1ccc(-n2nnc(C)c2COc2cc3c(nn2)CNCC3)cn1 [Compound 44]
cognitive performance ([4]; aged rats): improved cognitive performance

Cc1nnn(-c2ccc(C(F)(F)F)nc2)c1COc1cc2c(cn1)CNCC2 [Example 25, 6-({4-methyl-1-[6-(trifluoromethyl)pyridin-3-yl]-1H-1,2,3-triazol-5-yl}methoxy)-1,2,3,4-tetrahydro-2,7-naphthyridine]
Ki [1]: 0.128 µM | activation at 1 µM [2, 7]: 73%

C#Cc1ccc2c(c1)C(c1ccccc1F)=N[C@H](C)c1c(C(=O)OCC)ncn1-2 [SH-053-2′F—R—CH3]
behavioural effects [3]: procognitive, anxiolytic and antidepressant effects | pathological changes of locomotor activity [5]: attenuated pathological changes of locomotor activity

Cc1ccc(-n2nnc(C)c2COc2cc3c(nn2)CN(CC2CCC2)CC3)cn1 [Example 45, 5-[5-({[7-(cyclobutylmethyl)-5H,6H,7H,8H-pyrido[3,4-c]pyridazin-3-yl]oxy}methyl)-4-methyl-1H-1,2,3-triazol-1-yl]-2-methylpyridine tartarate salt]
Ki [1]: 0.0995 µM | activation at 1 µM [2]: 97%

Cc1ccc(-n2nnc(C)c2COc2cc3c(cn2)CN(C(C)C)CC3)cn1 [Example 22, 6-{[4-methyl-1-(6-methylpyridin-3-yl)-1H-1,2,3-triazol-5-yl]methoxyl}-2-(propan-2-yl)-1,2,3,4-tetrahydro-2,7-naphthyridine]
Ki [1]: 0.0227 µM | activation at 1 µM [2, 7]: 68%

Cc1ccc(-c2noc(C)c2COc2cc3c(cn2)CN(C2CCOCC2)CC3)cn1 [Example 11, 6-{[5-methyl-3-(6-methylpyridin-3-yl)-1,2-oxazol-4-yl]methoxy}-2-(oxan-4-yl)-1,2,3,4-tetrahydro-2,7-naphthyridine]
Ki [1]: 0.0074 µM | activation at 1 µM [2, 7]: 114%

Cc1ccc(-c2noc(C)c2COc2cc3c(nn2)CNCC3)cn1 [Example 14, 2-methyl-5-[5-methyl-4-({5H,6H,7H,8H-pyrido[3,4-c]pyridazin-3-yloxy}methyl)-1,2-oxazol-3-yl]pyridine]
Ki [1]: 0.0032 µM | activation at 1 µM [2, 7]: 126%

Cc1onc(-c2ccc(C(F)(F)F)nc2)c1COc1cc2c(cn1)CN(C1CCOCC1)CC2 [Example 7, 6-({5-methyl-3-[6-(trifluoromethyl)pyridin-3-yl]-1,2-oxazol-4-yl}methoxy)-2-(oxan-4-yl)-1,2,3,4-tetrahydro-2,7-naphthyridine]
Ki [1]: 0.0293 µM | activation at 1 µM [2, 7]: 125%

Cc1onc(-c2ccc(C(F)(F)F)nc2)c1COc1cc2c(nn1)CNCC2 [Example 15, 5-[5-methyl-4-({5H,6H,7H,8H-pyrido[3,4-c]pyridazin-3-yloxy}methyl)-1,2-oxazol-3-yl]-2-(trifluoromethyl)pyridine]
Ki [1]: 0.0171 µM | activation at 1 µM [2, 7]: 115%

Cc1ccc(-n2nnc(C)c2COc2cc3c(cn2)CN(C)CC3)cn1 [Example 21, 2-methyl-6-{[4-methyl-1-(6-methylpyridin-3-yl)-1H-1,2,3-triazol-5-yl]methoxy}-1,2,3,4-tetrahydro-2,7-naphthyridine]
Ki [1]: 0.023 µM | activation at 1 µM [2, 7]: 134%

Cc1ccc(-c2noc(C)c2COc2cc3c(cn2)CN(C2COC2)CC3)cn1 [Example 10, 6-{[5-methyl-3-(6-methylpyridin-3-yl)-1,2-oxazol-4-yl]methoxy}-2-(oxetan-3-yl)-1,2,3,4-tetrahydro-2,7-naphthyridine]
Ki [1]: 0.0045 µM | activation at 1 µM [2, 7]: 131%

O=C1CN=C(c2ccccc2Cl)c2cc([N+](=O)[O-])ccc2N1 [clonazepam]
symptoms in preclinical models of ASD [6]: ameliorate symptoms

Cc1onc(-c2ccc(C(F)(F)F)nc2)c1COc1cc2c(cn1)CNCC2 [Example 2, 6-({5-methyl-3-[6-(trifluoromethyl)pyridin-3-yl]-1,2-oxazol-4-yl}methoxy)-1,2,3,4-tetrahydro-2,7-naphthyridine trifluoroacetic acid salt]
Ki [1]: 0.037 µM | activation at 1 µM [2]: 100%

Cc1ccc(-c2noc(C)c2COc2cc3c(cn2)CN(c2ccccn2)CC3)cn1 [Example 13, 6-{[5-methyl-3-(6-methylpyridin-3-yl)-1,2-oxazol-4-yl]methoxy}-2-(pyridin-2-yl)-1,2,3,4-tetrahydro-2,7-naphthyridine]
Ki [1]: 0.0066 µM | activation at 1 µM [2, 7]: 129%

Cc1ccc(-c2noc(C)c2COc2cc3c(nn2)CN(C)CC3)cn1 [Example 16, 2-methyl-5-{5-methyl-4-[({7-methyl-5H,6H,7H,8H-pyrido[3,4-c]pyridazin-3-yl}oxy)methyl]-1,2-oxazol-3-yl}pyridine]
Ki [1]: 0.0056 µM | activation at 1 µM [2, 7]: 146%

Cc1nnn(-c2ccc(C(F)(F)F)nc2)c1COc1cc2c(cn1)CN(C1CCOC1)CC2 (stereo not drawn) [Example 32, 6-({4-methyl-1-[6-(trifluoromethyl)pyridin-3-yl]-1H-1,2,3-triazol-5-yl}methoxy)-2-(oxolan-3-yl)-1,2,3,4-tetrahydro-2,7-naphthyridine]
Ki [1]: 0.0445 µM | activation at 1 µM [2, 7]: 155%

Cc1ccc(-n2nnc(C)c2COc2cc3c(cn2)CN(C2CCOCC2)CC3)cn1 [Example 33, 6-{[4-methyl-1-(6-methylpyridin-3-yl)-1H-1,2,3-triazol-5-yl]methoxy}-2-(oxan-4-yl)-1,2,3,4-tetrahydro-2,7-naphthyridine]
Ki [1]: 0.0295 µM | activation at 1 µM [2, 7]: 71%

Cc1ccc(-n2nnc(C)c2COc2cc3c(cn2)CN(C2COC2)CC3)cn1 [Example 31, 6-{[4-methyl-1-(6-methylpyridin-3-yl)-1H-1,2,3-triazol-5-yl]methoxy}-2-(oxetan-3-yl)-1,2,3,4-tetrahydro-2,7-naphthyridine]
Ki [1]: 0.036 µM | activation at 1 µM [2, 7]: 115%

Cc1nnn(-c2ccc(C(F)F)nc2)c1COc1cc2c(cn1)CN(C)CC2 [Example 24, 6-({1-[6-(difluoromethyl)pyridin-3-yl]-4-methyl-1H-1,2,3-triazol-5-yl}methoxy)-2-methyl-1,2,3,4-tetrahydro-2,7-naphthyridine]
Ki [1]: 0.0083 µM | activation at 1 µM [2, 7]: 88%
